What was measured:
[1] = test system: Aedes aegypti; assay: Aedes test: contact on treated glazed tile, knock-down; assay type: in vivo
Experimental: To produce a suitable preparation of active compound combination the active compounds bendiocarb and clothianidin were dissolved in acetone (for the control group only one active compound was dissolved in acetone). The active compound combination preparation (and the active compound preparations) were pipetted onto a glazed tile and, after drying, adult mosquitoes of the species Aedes aegypti are placed onto the treated tile. The exposition time is 30 minutes.
(§1) 0.25 hours, 0.5 hours, 1 hour, 2 hour, 3 hour, 4 hour and 24 hours after contact to the treated surface, the knock-down proportion of the test animals in % is determined. Here, 100% means that all mosquitoes have been killed; 0% means that none of the mosquitoes has been killed.

[2] = test system: Anopheles gambiae (target-site-resistant and metabolic-resistant strain: RSPH); assay: Target-site-resistant and metabolic-resistant Anopheles test: treated glazed tile, knock-down; assay type: in vivo
Experimental: (§2) The exposition time is 30 minutes.
as §1

[3] = test system: mosquitoes; conditions: alone, on wood; stated as known; cited from earlier work
[4] = test system: Anopheles funestus metabolic-resistant strain FUMOZ-R; assay: Metabolic-resistant Anopheles test: treated glazed tile, knock-down; assay type: in vivo
Experimental: as §2, §1

[5] = Clothianidin 5 mg/m^2 alone, 0.25 h after contact
[6] = Clothianidin 5 mg/m^2 alone, 0.5 h after contact
[7] = Clothianidin 5 mg/m^2 alone, 1 h after contact
[8] = Clothianidin 5 mg/m^2 alone, 2 h after contact
[9] = Clothianidin 5 mg/m^2 alone, 3 h after contact
[10] = Clothianidin 5 mg/m^2 alone, 4 h after contact
[11] = Clothianidin 5 mg/m^2 alone, 24 h after contact
[12] = Clothianidin 20 mg/m^2 alone, 0.25 h after contact
[13] = Clothianidin 20 mg/m^2 alone, 0.5 h after contact
[14] = Clothianidin 20 mg/m^2 alone, 1 h after contact
[15] = Clothianidin 20 mg/m^2 alone, 2 h after contact
[16] = Clothianidin 20 mg/m^2 alone, 3 h after contact
[17] = Clothianidin 20 mg/m^2 alone, 4 h after contact
[18] = Clothianidin 20 mg/m^2 alone, 24 h after contact
[19] = Dinotefuran 0.8 mg/m^2 alone, 0.25 h after contact
[20] = Dinotefuran 0.8 mg/m^2 alone, 0.5 h after contact
[21] = Dinotefuran 0.8 mg/m^2 alone, 1 h after contact
[22] = Dinotefuran 0.8 mg/m^2 alone, 2 h after contact
[23] = Dinotefuran 0.8 mg/m^2 alone, 3 h after contact
[24] = Dinotefuran 0.8 mg/m^2 alone, 4 h after contact
[25] = Dinotefuran 0.8 mg/m^2 alone, 24 h after contact
[26] = Dinotefuran 4 mg/m^2 alone, 0.25 h after contact
[27] = Dinotefuran 4 mg/m^2 alone, 0.5 h after contact
[28] = Dinotefuran 4 mg/m^2 alone, 1 h after contact
[29] = Dinotefuran 4 mg/m^2 alone, 2 h after contact
[30] = Dinotefuran 4 mg/m^2 alone, 3 h after contact
[31] = Dinotefuran 4 mg/m^2 alone, 4 h after contact
[32] = Dinotefuran 4 mg/m^2 alone, 24 h after contact

SMILES: CN/C(=N\[N+](=O)[O-])NCc1cnc(Cl)s1 [Clothianidin, clothianidin]
- Effect % (knock-down) [1, 5]: 5%
- Effect % (knock-down) [1, 6]: 5%
- Effect % (knock-down) [1, 7]: 5%
- Effect % (knock-down) [1, 8]: 5%
- Effect % (knock-down) [1, 9]: 5%
- Effect % (knock-down) [1, 10]: 10%
- Effect % (knock-down) [1, 11]: 15%
- Effect % (knock-down) [1, 12]: 0%
- Effect % (knock-down) [1, 13]: 15%
- Effect % (knock-down) [1, 14]: 20%
- Effect % (knock-down) [1, 15]: 15%
- Effect % (knock-down) [1, 16]: 10%
- Effect % (knock-down) [1, 17]: 10%
- Effect % (knock-down) [1, 18]: 30%
- Effect % (knock-down) [2, 5]: 15%
- Effect % (knock-down) [2, 6]: 25%
- Effect % (knock-down) [2, 7]: 35%
- Effect % (knock-down) [2, 8]: 35%
- Effect % (knock-down) [2, 9]: 45%
- Effect % (knock-down) [2, 10]: 50%
- Effect % (knock-down) [2, 11]: 65%
- Effect % (knock-down) [2, 12]: 30%
- Effect % (knock-down) [2, 13]: 35%
- Effect % (knock-down) [2, 14]: 40%
- Effect % (knock-down) [2, 15]: 45%
- Effect % (knock-down) [2, 16]: 50%
- Effect % (knock-down) [2, 17]: 55%
- Effect % (knock-down) [2, 18]: 65%
- Effect % (knock-down) ([2]; Clothianidin 50 mg/m^2 alone, 0.25 h after contact): 10%
- Effect % (knock-down) ([2]; Clothianidin 50 mg/m^2 alone, 0.5 h after contact): 35%
- Effect % (knock-down) ([2]; Clothianidin 50 mg/m^2 alone, 1 h after contact): 65%
- Effect % (knock-down) ([2]; Clothianidin 50 mg/m^2 alone, 2 h after contact): 65%
- Effect % (knock-down) ([2]; Clothianidin 50 mg/m^2 alone, 3 h after contact): 60%
- Effect % (knock-down) ([2]; Clothianidin 50 mg/m^2 alone, 4 h after contact): 65%
- Effect % (knock-down) ([2]; Clothianidin 50 mg/m^2 alone, 24 h after contact): 95%
- efficiency on wood [3]: not efficient

SMILES: CN/C(=N/CC1CCOC1)N[N+](=O)[O-] (stereo not shown) [Dinotefuran, dinotefuran]
- Effect % (knock-down) [2, 19]: 10%
- Effect % (knock-down) [2, 20]: 5%
- Effect % (knock-down) [2, 21]: 5%
- Effect % (knock-down) [2, 22]: 10%
- Effect % (knock-down) [2, 23]: 20%
- Effect % (knock-down) [2, 24]: 30%
- Effect % (knock-down) [2, 25]: 35%
- Effect % (knock-down) [2, 26]: 15%
- Effect % (knock-down) [2, 27]: 5%
- Effect % (knock-down) [2, 28]: 15%
- Effect % (knock-down) [2, 29]: 40%
- Effect % (knock-down) [2, 30]: 35%
- Effect % (knock-down) [2, 31]: 65%
- Effect % (knock-down) [2, 32]: 65%
- Effect % (knock-down) [4, 19]: 0%
- Effect % (knock-down) [4, 20]: 0%
- Effect % (knock-down) [4, 21]: 5%
- Effect % (knock-down) [4, 22]: 0%
- Effect % (knock-down) [4, 23]: 10%
- Effect % (knock-down) [4, 24]: 15%
- Effect % (knock-down) [4, 25]: 35%
- Effect % (knock-down) [4, 26]: 15%
- Effect % (knock-down) [4, 27]: 10%
- Effect % (knock-down) [4, 28]: 10%
- Effect % (knock-down) [4, 29]: 15%
- Effect % (knock-down) [4, 30]: 30%
- Effect % (knock-down) [4, 31]: 40%
- Effect % (knock-down) [4, 32]: 55%
